Results from patent US9902736B2, “1-oxo/acylation-14-acylated oridonin derivative, preparation method therefor and application thereof” (HANGZHOU BENSHENG PHARMACEUTICAL CO., LTD., priority 2012, dated 2018).
≈ marks a conversion by molar mass, not a printed value.

Test system: K562/ADR
Assay: Leukemia cell growth inhibition, MTT, 72 h
Type: cell-based
Conditions: Homo sapiens
Source text: (§1) Leukemia cell lines: leukemia cell lines: K562/adr (drug-resistant, chronic myeloid leukemia, CML), NB4 (acute promyelocytic leukemia, AML), Kasumi-1 (acute myeloid leukemia M2 type, AML-M2), Jurkat (acute lymphoblastic leukemia, ALL), all of which were donated by Cancer Research Institute of Zhejiang University, China; and H9 (acute lymphoblastic leukemia, ALL), which was purchased from China Center for Type Culture Collection.
(§2) 6000 well-growing leukemia cells were obtained and inoculated into wells of a 96-well cell culture plate. […] On the next day, the 1-oxo/acylated-14-acylated oridonin derivatives of different concentrations were added and mixed uniformly. The plate was placed in a carbon dioxide cell incubator (5% CO2) at 37° C. and was incubated for 72 hours. Then the viable cell concentration was determined by MTT method.

IC50 [µg/mL] | IC90 [µg/mL] | Compound
0.52 (≈ 1.21 µM) | 1.9 (≈ 4.41 µM) | C=C1C(=O)[C@]23[C@H](OC(=O)C4CC4)[C@H]1CC[C@H]2[C@@]12CO[C@@]3(O)[C@@H](O)[C@@H]1C(C)(C)CCC2=O [BS-OR-017]

Test system: Kasumi-1
Assay: Leukemia cell growth inhibition, MTT, 72 h
Type: cell-based
Conditions: Homo sapiens
Source text: as §1, §2

IC50 [µg/mL] | IC90 [µg/mL] | Compound
0.69 (≈ 1.6 µM) | 1.7 (≈ 3.95 µM) | C=C1C(=O)[C@]23[C@H](OC(=O)C4CC4)[C@H]1CC[C@H]2[C@@]12CO[C@@]3(O)[C@@H](O)[C@@H]1C(C)(C)CCC2=O [BS-OR-017]

Test system: H9
Assay: Leukemia cell growth inhibition, MTT, 72 h
Type: cell-based, human
Conditions: Homo sapiens, H9; 72 h, MTT
Source text: as §1, §2

IC50 [µg/mL] | IC90 [µg/mL] | Compound
0.53 (≈ 1.23 µM) | 0.98 (≈ 2.28 µM) | C=C1C(=O)[C@]23[C@H](OC(=O)C4CC4)[C@H]1CC[C@H]2[C@@]12CO[C@@]3(O)[C@@H](O)[C@@H]1C(C)(C)CCC2=O [BS-OR-017]

Test system: Jurkat
Assay: Leukemia cell growth inhibition, MTT, 72 h
Type: cell-based, human
Conditions: Homo sapiens, Jurkat; 72 h, MTT
Source text: as §1, §2

IC50 [µg/mL] | IC90 [µg/mL] | Compound
0.92 (≈ 2.14 µM) | 5.63 (≈ 13.1 µM) | C=C1C(=O)[C@]23[C@H](OC(=O)C4CC4)[C@H]1CC[C@H]2[C@@]12CO[C@@]3(O)[C@@H](O)[C@@H]1C(C)(C)CCC2=O [BS-OR-017]

Test system: NB4
Assay: Leukemia cell growth inhibition, MTT, 72 h
Type: cell-based, human
Conditions: Homo sapiens, NB-4; 72 h, MTT
Source text: as §1, §2

IC50 [µg/mL] | IC90 [µg/mL] | Compound
0.14 (≈ 0.325 µM) | 0.82 (≈ 1.9 µM) | C=C1C(=O)[C@]23[C@H](OC(=O)C4CC4)[C@H]1CC[C@H]2[C@@]12CO[C@@]3(O)[C@@H](O)[C@@H]1C(C)(C)CCC2=O [BS-OR-017]

Test system: RPMI 8226
Assay: Multiple myeloma cell growth inhibition, MTT, 72 h
Type: cell-based
Conditions: Homo sapiens
Description: Multiple myeloma cell lines: RPMI8226 (multiple myeloma), purchased from Fuxiang Bio-tech Co. Ltd., Shanghai, China.
as §2, with “well-growing” for “well-growing leukemia”, “and” for “and was”

IC50 [µg/mL] | IC90 [µg/mL] | Compound
0.5 (≈ 1.16 µM) | 1.88 (≈ 4.37 µM) | C=C1C(=O)[C@]23[C@H](OC(=O)C4CC4)[C@H]1CC[C@H]2[C@@]12CO[C@@]3(O)[C@@H](O)[C@@H]1C(C)(C)CCC2=O [BS-OR-017]

Test system: CNE
Assay: Solid tumor cell growth inhibition, MTT, 72 h
Type: cell-based, human
Conditions: Homo sapiens, CNE; 72 h, MTT
Description: (§3) 6000 well-growing human solid tumor cells were obtained and inoculated into wells of a 96-well cell culture plate. The culture medium was DMEM High Glucose cell culture medium containing 10% fetal bovine serum. The plate was placed in a carbon dioxide cell incubator (5% CO2) at 37° C. and incubated for 24 hours. After added with 1-oxo/acylated-14-acylated oridonin derivatives of different concentration and mixed uniformly, the plate was placed in a carbon dioxide cell incubator (5% CO2) at 37° C. and incubated for 72 hours. Then the viable cell concentration was determined by MTT method.

IC50 [µg/mL] | IC90 [µg/mL] | Compound
1.13 (≈ 2.62 µM) | 4.96 (≈ 11.5 µM) | C=C1C(=O)[C@]23[C@H](OC(=O)C4CC4)[C@H]1CC[C@H]2[C@@]12CO[C@@]3(O)[C@@H](O)[C@@H]1C(C)(C)CCC2=O [BS-OR-017]

Test system: Hela
Assay: Solid tumor cell growth inhibition, MTT, 72 h
Type: cell-based, human
Conditions: Homo sapiens, HeLa; 72 h, MTT
Description: as §3

IC50 [µg/mL] | IC90 [µg/mL] | Compound
1.35 (≈ 3.14 µM) | 3.86 (≈ 8.97 µM) | C=C1C(=O)[C@]23[C@H](OC(=O)C4CC4)[C@H]1CC[C@H]2[C@@]12CO[C@@]3(O)[C@@H](O)[C@@H]1C(C)(C)CCC2=O [BS-OR-017]

Test system: Hep-2
Assay: Solid tumor cell growth inhibition, MTT, 72 h
Type: cell-based, human
Conditions: Homo sapiens, HEp-2; 72 h, MTT
Description: as §3

IC50 [µg/mL] | IC90 [µg/mL] | Compound
1.62 (≈ 3.76 µM) | 6.93 (≈ 16.1 µM) | C=C1C(=O)[C@]23[C@H](OC(=O)C4CC4)[C@H]1CC[C@H]2[C@@]12CO[C@@]3(O)[C@@H](O)[C@@H]1C(C)(C)CCC2=O [BS-OR-017]

Test system: MGC-803
Assay: Solid tumor cell growth inhibition, MTT, 72 h
Type: cell-based, human
Conditions: Homo sapiens, MGC-803; 72 h, MTT
Description: as §3

IC50 [µg/mL] | IC90 [µg/mL] | Compound
0.91 (≈ 2.11 µM) | 4.16 (≈ 9.66 µM) | C=C1C(=O)[C@]23[C@H](OC(=O)C4CC4)[C@H]1CC[C@H]2[C@@]12CO[C@@]3(O)[C@@H](O)[C@@H]1C(C)(C)CCC2=O [BS-OR-017]

Test system: A549
Assay: Solid tumor cell growth inhibition, MTT, 72 h
Type: cell-based
Conditions: Homo sapiens
Description: as §3

IC50 [µg/mL] | IC90 [µg/mL] | Compound
2.93 (≈ 6.81 µM) | 6.29 (≈ 14.6 µM) | C=C1C(=O)[C@]23[C@H](OC(=O)C4CC4)[C@H]1CC[C@H]2[C@@]12CO[C@@]3(O)[C@@H](O)[C@@H]1C(C)(C)CCC2=O [BS-OR-017]

Test system: Becap-37
Assay: Solid tumor cell growth inhibition, MTT, 72 h
Type: cell-based
Conditions: Homo sapiens
Description: as §3

IC50 [µg/mL] | IC90 [µg/mL] | Compound
1.13 (≈ 2.62 µM) | 4.58 (≈ 10.6 µM) | C=C1C(=O)[C@]23[C@H](OC(=O)C4CC4)[C@H]1CC[C@H]2[C@@]12CO[C@@]3(O)[C@@H](O)[C@@H]1C(C)(C)CCC2=O [BS-OR-017]

Test system: CaEs-17
Assay: Solid tumor cell growth inhibition, MTT, 72 h
Type: cell-based
Conditions: Homo sapiens, CaEs17
Description: as §3

IC50 [µg/mL] | IC90 [µg/mL] | Compound
1.32 (≈ 3.07 µM) | 5.89 (≈ 13.7 µM) | C=C1C(=O)[C@]23[C@H](OC(=O)C4CC4)[C@H]1CC[C@H]2[C@@]12CO[C@@]3(O)[C@@H](O)[C@@H]1C(C)(C)CCC2=O [BS-OR-017]

Test system: Hep G2
Assay: Solid tumor cell growth inhibition, MTT, 72 h
Type: cell-based
Conditions: Homo sapiens, HepG2
Description: as §3

IC50 [µg/mL] | IC90 [µg/mL] | Compound
1.61 (≈ 3.74 µM) | 8.04 (≈ 18.7 µM) | C=C1C(=O)[C@]23[C@H](OC(=O)C4CC4)[C@H]1CC[C@H]2[C@@]12CO[C@@]3(O)[C@@H](O)[C@@H]1C(C)(C)CCC2=O [BS-OR-017]

Test system: MG-63
Assay: Solid tumor cell growth inhibition, MTT, 72 h
Type: cell-based
Conditions: Homo sapiens
Description: as §3

IC50 [µg/mL] | IC90 [µg/mL] | Compound
0.47 (≈ 1.09 µM) | 1.8 (≈ 4.18 µM) | C=C1C(=O)[C@]23[C@H](OC(=O)C4CC4)[C@H]1CC[C@H]2[C@@]12CO[C@@]3(O)[C@@H](O)[C@@H]1C(C)(C)CCC2=O [BS-OR-017]

Test system: PANC-1
Assay: Solid tumor cell growth inhibition, MTT, 72 h
Type: cell-based
Conditions: Homo sapiens
Description: as §3

IC50 [µg/mL] | IC90 [µg/mL] | Compound
1.96 (≈ 4.55 µM) | 5.76 (≈ 13.4 µM) | C=C1C(=O)[C@]23[C@H](OC(=O)C4CC4)[C@H]1CC[C@H]2[C@@]12CO[C@@]3(O)[C@@H](O)[C@@H]1C(C)(C)CCC2=O [BS-OR-017]

Test system: PC-3
Assay: Solid tumor cell growth inhibition, MTT, 72 h
Type: cell-based
Conditions: Homo sapiens
Description: as §3

IC50 [µg/mL] | IC90 [µg/mL] | Compound
1.99 (≈ 4.62 µM) | 3.92 (≈ 9.11 µM) | C=C1C(=O)[C@]23[C@H](OC(=O)C4CC4)[C@H]1CC[C@H]2[C@@]12CO[C@@]3(O)[C@@H](O)[C@@H]1C(C)(C)CCC2=O [BS-OR-017]

Test system: RKO
Assay: Solid tumor cell growth inhibition, MTT, 72 h
Type: cell-based
Conditions: Homo sapiens
Description: as §3

IC50 [µg/mL] | IC90 [µg/mL] | Compound
0.6 (≈ 1.39 µM) | 1.91 (≈ 4.44 µM) | C=C1C(=O)[C@]23[C@H](OC(=O)C4CC4)[C@H]1CC[C@H]2[C@@]12CO[C@@]3(O)[C@@H](O)[C@@H]1C(C)(C)CCC2=O [BS-OR-017]

Test system: SK-OV-3
Assay: Solid tumor cell growth inhibition, MTT, 72 h
Type: cell-based
Conditions: Homo sapiens, SK-OV-3; 72 h, MTT; read-out: IC50 SK-OV-3
Description: as §3

IC50 [µg/mL] | Compound
1.99 (≈ 4.62 µM) | C=C1C(=O)[C@]23[C@H](OC(=O)C4CC4)[C@H]1CC[C@H]2[C@@]12CO[C@@]3(O)[C@@H](O)[C@@H]1C(C)(C)CCC2=O [BS-OR-017]

Same assay, conditions: Homo sapiens, SK-OV-3; 72 h, MTT; read-out: IC90 SK-OV-3

IC90 [µg/mL] | Compound
3.92 (≈ 9.11 µM) | C=C1C(=O)[C@]23[C@H](OC(=O)C4CC4)[C@H]1CC[C@H]2[C@@]12CO[C@@]3(O)[C@@H](O)[C@@H]1C(C)(C)CCC2=O [BS-OR-017]

Test system: U87-MG
Assay: Solid tumor cell growth inhibition, MTT, 72 h
Type: cell-based
Conditions: Homo sapiens, U-87 MG
Description: as §3

IC50 [µg/mL] | IC90 [µg/mL] | Compound
1.24 (≈ 2.88 µM) | 3.64 (≈ 8.46 µM) | C=C1C(=O)[C@]23[C@H](OC(=O)C4CC4)[C@H]1CC[C@H]2[C@@]12CO[C@@]3(O)[C@@H](O)[C@@H]1C(C)(C)CCC2=O [BS-OR-017]
